Where two headings read alike, the source gives them in different places. Blank lines part the entries; values can stand above or below the compound they belong to.
How the values were obtained:
[1] = Pharmacokinetic study in rat plasma after oral administration of QJYQ (UHPLC-sMRM); assay type: in vivo, Sprague-Dawley rats; conditions: for AUC(0-inf): read-out: AUC(0-∞); for MRT inf: read-out: MRT (0-∞); for MRT last: read-out: MRT(0-t)
Method: Exion LC AD tandem Blueline 3500 triple quadrupole mass spectrometer (AB SCIEX, Framingham, MA, United States) was used to thirty-three compounds in rat plasma. […] The whole detailed parameters of sMRM were obtained in Supplementary Table S1.
Rat plasma (100 μL) was mixed with 10% formic acid (10 μL) and vortexed for 1 min at room temperature. ISs (10 μL) and methanol/acetonitrile (1/1, v/v) (400 μL) were added and vortexed for 5 min, then centrifuged for 10 min at 14,000 rpm and 4°C. The transported supernatant was condensed to dryness under the flow of nitrogen gas. The dried residue was reconstituted with 70% methanol (100 μL) by vortex-mixing for 5 min and centrifuging at 14,000 rpm for 10 min. Last, 2 μL of the solution were injected into the UHPLC-sMRM system.
The pharmacokinetic study was approved by the Animal Ethics Committee of Tianjin University of Traditional Chinese Medicine (TCM-LAEC2021228). Ten male Sprague-Dawley rats (weight 220–240 g) was kept at the animal center of Tianjin University of Traditional Chinese Medicine (Tianjin, China). […] The sample was transferred right away following a 10 min period of centrifugation at 7000 rpm and 4°C. All plasma samples were frozen and stored at −80°C.
All the pharmacokinetic parameters were calculated using the DAS 1.0 software (Drug and Statistics 1.0, Medical College of Wannan, China). Pharmacokinetic parameters include the maximum drug concentration in plasma (Cmax), the time to achieve maximum drug concentration (Tmax), the area under the plasma concentration-time curve (AUC), elimination half-life (T1/2), and mean residence time (MRT). The pharmacokinetic parameters were computed using the non-compartmental model. All data are expressed as mean ± standard deviation (SD). GraphPad Prism 8.0 (GraphPad Software Inc., La Jolla, CA, United States) software was used to draw the drug-time curve.

[2] = Stability of the working solution (4°C for 1 month); assay type: physicochemical
[3] = set-up: method as in Wang et al., 2008; Feng et al., 2017; conditions: alkaline and light and heat conditions; ref Wang et al., 2008; Feng et al., 2017; cited from earlier work
[4] = Stability of analytes in rat plasma (auto-sampler, freeze-thaw, room temperature, long-term); conditions: for Autosampler for 24 h Accuracy (%): autosampler 24 h; for Room temperature for 24 h Accuracy (%): room temperature 24 h; for Freeze thaw cycles Accuracy (%): three freeze-thaw cycles
[5] = male, Sprague-Dawley, rat, plasma, po, 3.15 g/kg, rat plasma, oral QJYQ 3.15 g/kg, n = 8, mean ± SD, read-out: Tmax
[6] = male, Sprague-Dawley, rat plasma, oral QJYQ 3.15 g/kg, n = 8, mean ± SD
[7] = male, Sprague-Dawley, rat plasma, oral QJYQ 3.15 g/kg, n = 8, mean ± SD, read-out: AUC(0-t)
[8] = male, Sprague-Dawley, rat plasma, oral QJYQ 3.15 g/kg, n = 8, mean ± SD, read-out: Cmax
[9] = rat plasma, oral QJYQ 3.15 g/kg, n = 8, mean ± SD

Structure (SMILES): O=C(O)[C@H]1O[C@@H](Oc2cc3oc(-c4ccccc4)cc(=O)c3c(O)c2O)[C@H](O)[C@@H](O)[C@@H]1O [baicalin]
Tmax [1, 5]: 7.22 ± 1.41 h
MRT ([1]; male, Sprague-Dawley, rat plasma, oral QJYQ 3.15 g/kg, MRT type not specified, read-out: MRT): > 8 h
half-life [1, 6]: 3.09 ± 0.87 h
AUC(0-t) [1, 7]: 49300 ± 24900 ng·h/mL
AUC(0-inf) [1, 6]: 49700 ± 24900 ng·h/mL
Cmax [1, 8]: 4520 ± 3140 ng/mL
MRT inf [1, 6]: 8.62 ± 0.53 h
MRT last [1, 6]: 8.45 ± 0.58 h
Working solution Accuracy (%) ([2]; 15.6 ng/mL): 83.1%
Working solution Accuracy (%) ([2]; 125 ng/mL): 105.0%
Working solution Accuracy (%) ([2]; 1000 ng/mL): 93.9%
Working solution Accuracy (%) ([2]; 5000 ng/mL): 87.7%
stability [3]: not stable
Autosampler for 24 h Accuracy (%) ([4]; 15.6 ng/mL): 111.0%
Room temperature for 24 h Accuracy (%) ([4]; 15.6 ng/mL): 98.5%
−80°C for 1month Accuracy (%) ([4]; 15.6 ng/mL, −80°C 1 month): 98.9%
Autosampler for 24 h Accuracy (%) ([4]; 125 ng/mL): 113.0%
Room temperature for 24 h Accuracy (%) ([4]; 125 ng/mL): 104.0%
Freeze thaw cycles Accuracy (%) ([4]; 125 ng/mL): 89.3%
−80°C for 1month Accuracy (%) ([4]; 125 ng/mL, −80°C 1 month): 98.1%
Autosampler for 24 h Accuracy (%) ([4]; 1000 ng/mL): 94.2%
Room temperature for 24 h Accuracy (%) ([4]; 1000 ng/mL): 96.8%
Freeze thaw cycles Accuracy (%) ([4]; 1000 ng/mL): 89.7%
−80°C for 1month Accuracy (%) ([4]; 1000 ng/mL, −80°C 1 month): 91.4%
Autosampler for 24 h Accuracy (%) ([4]; 5000 ng/mL): 86.8%
Room temperature for 24 h Accuracy (%) ([4]; 5000 ng/mL): 89.0%
Freeze thaw cycles Accuracy (%) ([4]; 5000 ng/mL): 111.0%
−80°C for 1month Accuracy (%) ([4]; 5000 ng/mL, −80°C 1 month): 90.3%

AUC(0-t) ([1]; rat, in vivo, po, 3.15 g/kg): 14603.11 ± 7523.95 ng·h/mL
AUC(0-∞) ([1]; rat, in vivo, po, 3.15 g/kg): 15028.42 ± 7667.50 ng·h/mL
Cmax ([1]; rat, in vivo, po, 3.15 g/kg): 167.50 ± 108.49 ng/mL
MRT ([1]; rat, in vivo, po, 3.15 g/kg): greater than 8 h
MRT (0-∞) ([1]; rat, in vivo, po, 3.15 g/kg): 8.62 ± 1.65 h
MRT(0-t) ([1]; rat, in vivo, po, 3.15 g/kg): 8.39 ± 1.62 h
T1/2 ([1]; rat, in vivo, po, 3.15 g/kg): 4.17 ± 1.51 h
Tmax ([1]; rat, in vivo, po, 3.15 g/kg): 4.65 ± 2.79 h
Working solution Accuracy (%) ([2]; 1.56 ng/mL): 83.6%
Working solution Accuracy (%) ([2]; 12.5 ng/mL): 112.0%
Working solution Accuracy (%) ([2]; 100 ng/mL): 88.5%
Working solution Accuracy (%) ([2]; 500 ng/mL): 93.2%
Autosampler for 24 h Accuracy (%) ([4]; 1.56 ng/mL): 103.0%
Room temperature for 24 h Accuracy (%) ([4]; 1.56 ng/mL): 114.0%
Freeze thaw cycles Accuracy (%) ([4]; 1.56 ng/mL): 109.0%
−80°C for 1month Accuracy (%) ([4]; 1.56 ng/mL, −80°C 1 month): 104.0%
Autosampler for 24 h Accuracy (%) ([4]; 12.5 ng/mL): 93.2%
Room temperature for 24 h Accuracy (%) ([4]; 12.5 ng/mL): 92.2%
Freeze thaw cycles Accuracy (%) ([4]; 12.5 ng/mL): 85.6%
−80°C for 1month Accuracy (%) ([4]; 12.5 ng/mL, −80°C 1 month): 86.0%
Autosampler for 24 h Accuracy (%) ([4]; 100 ng/mL): 94.1%
Room temperature for 24 h Accuracy (%) ([4]; 100 ng/mL): 90.4%
Freeze thaw cycles Accuracy (%) ([4]; 100 ng/mL): 86.4%
−80°C for 1month Accuracy (%) ([4]; 100 ng/mL, −80°C 1 month): 85.0%
Autosampler for 24 h Accuracy (%) ([4]; 500 ng/mL): 85.5%
Room temperature for 24 h Accuracy (%) ([4]; 500 ng/mL): 104.0%
Freeze thaw cycles Accuracy (%) ([4]; 500 ng/mL): 88.3%
−80°C for 1month Accuracy (%) ([4]; 500 ng/mL, −80°C 1 month): 108.0%
Structure (SMILES): O=C(O)[C@H]1O[C@@H](Oc2cc(O)c3c(=O)cc(-c4ccc(O)cc4)oc3c2)[C@H](O)[C@@H](O)[C@@H]1O [apigenin-7-O-glucuronide]

half-life [1, 6]: 4.68 ± 0.41 h
AUC(0-t) [1, 7]: 347 ± 120 ng·h/mL
AUC(0-inf) [1, 6]: 354 ± 132 ng·h/mL
Cmax [1, 8]: 235 ± 81.1 ng/mL
MRT inf [1, 6]: 5.85 ± 3.26 h
MRT last [1, 6]: 5.25 ± 2.87 h
Working solution Accuracy (%) ([2]; 50 ng/mL): 100.0%
Working solution Accuracy (%) ([2]; 100 ng/mL): 95.7%
Working solution Accuracy (%) ([2]; 200 ng/mL): 104.0%
Room temperature for 24 h Accuracy (%) ([4]; 50 ng/mL): 108.0%
Freeze thaw cycles Accuracy (%) ([4]; 50 ng/mL): 95.7%
−80°C for 1month Accuracy (%) ([4]; 50 ng/mL, −80°C 1 month): 90.8%
Autosampler for 24 h Accuracy (%) ([4]; 100 ng/mL): 88.3%
Room temperature for 24 h Accuracy (%) ([4]; 100 ng/mL): 87.5%
Freeze thaw cycles Accuracy (%) ([4]; 100 ng/mL): 86.2%
−80°C for 1month Accuracy (%) ([4]; 100 ng/mL, −80°C 1 month): 85.5%
Autosampler for 24 h Accuracy (%) ([4]; 200 ng/mL): 102.0%
Room temperature for 24 h Accuracy (%) ([4]; 200 ng/mL): 87.2%
Autosampler for 24 h Accuracy (%) ([4]; 500 ng/mL): 104.0%
Freeze thaw cycles Accuracy (%) ([4]; 500 ng/mL): 95.6%
−80°C for 1month Accuracy (%) ([4]; 500 ng/mL, −80°C 1 month): 106.0%
Structure (SMILES): COc1ccc(/C=C/C(=O)O)cc1O [isoferulic acid]

Tmax [1, 5]: < 0.5 h
half-life [1, 6]: 1.67 ± 0.16 h
AUC(0-t) [1, 7]: 1110 ± 138 ng·h/mL
AUC(0-inf) [1, 6]: 1120 ± 228 ng·h/mL
Cmax [1, 8]: 359 ± 147 ng/mL
MRT inf [1, 6]: 5.38 ± 1.16 h
MRT last [1, 6]: 5.3 ± 0.28 h
Working solution Accuracy (%) ([2]; concentration 50 ng/mL): 88.5%
Working solution Accuracy (%) ([2]; concentration 100 ng/mL): 104.0%
Working solution Accuracy (%) ([2]; concentration 500 ng/mL): 87.0%
Autosampler for 24 h Accuracy (%) ([4]; concentration 12.5 ng/mL): 94.4%
Autosampler for 24 h Accuracy (%) ([4]; concentration 50 ng/mL): 100.0%
Autosampler for 24 h Accuracy (%) ([4]; concentration 100 ng/mL): 94.3%
Autosampler for 24 h Accuracy (%) ([4]; concentration 500 ng/mL): 94.5%
Room temperature for 24 h Accuracy (%) ([4]; concentration 50 ng/mL): 94.6%
Room temperature for 24 h Accuracy (%) ([4]; concentration 100 ng/mL): 107.0%
Room temperature for 24 h Accuracy (%) ([4]; concentration 500 ng/mL): 89.9%
Freeze thaw cycles Accuracy (%) ([4]; concentration 12.5 ng/mL): 84.6%
Freeze thaw cycles Accuracy (%) ([4]; concentration 500 ng/mL): 97.0%
−80°C for 1month Accuracy (%) ([4]; −80°C for 1 month, concentration 12.5 ng/mL): 85.6%
−80°C for 1month Accuracy (%) ([4]; −80°C for 1 month, concentration 50 ng/mL): 89.7%
−80°C for 1month Accuracy (%) ([4]; −80°C for 1 month, concentration 100 ng/mL): 96.2%
−80°C for 1month Accuracy (%) ([4]; −80°C for 1 month, concentration 500 ng/mL): 93.4%
Structure (SMILES): CC1(C)[C@@H](O[C@H]2O[C@H](C(=O)O)[C@@H](O)[C@H](O)[C@H]2O[C@@H]2O[C@H](C(=O)O)[C@@H](O)[C@H](O)[C@H]2O)CC[C@]2(C)[C@H]3C(=O)C=C4[C@@H]5C[C@@](C)(C(=O)O)CC[C@]5(C)CC[C@@]4(C)[C@]3(C)CC[C@@H]12 [glycyrrhizic acid]

Structure (SMILES): COc1cc(/C=C/C(=O)O)ccc1O [ferulic acid]
MRT ([1]; rat plasma, oral QJYQ 3.15 g/kg, MRT type not specified): greater than 8 h
AUC(0-t) [1, 9]: 173.23 ± 5.66 ng·h/mL
AUC(0-∞) [1, 9]: 176.72 ± 28.57 ng·h/mL
Cmax [1, 9]: 51.71 ± 10.68 ng/mL
MRT (0-∞) [1, 9]: 8.43 ± 0.53 h
MRT(0-t) [1, 9]: 8.40 ± 0.20 h
T1/2 [1, 9]: 2.12 ± 0.07 h
Working solution Accuracy (%) ([2]; 12.5 ng/mL): 87.7%
Working solution Accuracy (%) ([2]; 50 ng/mL): 96.8%
Working solution Accuracy (%) ([2]; 100 ng/mL): 88.3%
Working solution Accuracy (%) ([2]; 500 ng/mL): 96.7%
Autosampler for 24 h Accuracy (%) ([4]; 12.5 ng/mL): 84.5%
Room temperature for 24 h Accuracy (%) ([4]; 12.5 ng/mL): 104.0%
Freeze thaw cycles Accuracy (%) ([4]; 12.5 ng/mL): 96.0%
−80°C for 1month Accuracy (%) ([4]; 12.5 ng/mL, −80°C 1 month): 115.0%
Autosampler for 24 h Accuracy (%) ([4]; 50 ng/mL): 86.9%
Room temperature for 24 h Accuracy (%) ([4]; 50 ng/mL): 96.8%
Freeze thaw cycles Accuracy (%) ([4]; 50 ng/mL): 98.3%
−80°C for 1month Accuracy (%) ([4]; 50 ng/mL, −80°C 1 month): 90.9%
Autosampler for 24 h Accuracy (%) ([4]; 100 ng/mL): 91.5%
Room temperature for 24 h Accuracy (%) ([4]; 100 ng/mL): 86.7%
Freeze thaw cycles Accuracy (%) ([4]; 100 ng/mL): 115.0%
−80°C for 1month Accuracy (%) ([4]; 100 ng/mL, −80°C 1 month): 95.9%
Autosampler for 24 h Accuracy (%) ([4]; 500 ng/mL): 93.6%
−80°C for 1month Accuracy (%) ([4]; 500 ng/mL, −80°C 1 month): 107.0%

Reference: publication PMC10133546, “Simultaneous determination of multiple components in rat plasma by UHPLC-sMRM for pharmacokinetic studies after oral administration of Qingjin Yiqi Granules” (Frontiers in Pharmacology, 2023)
